Reference: patent publication US8664276B2, “Stilbene analogs and methods of treating cancer” (University of Kentucky Research Foundation, priority 2011, dated 2014)

Biological target: MAT2A (Homo sapiens, UniProt P31153)
Assay: In-vitro SAM synthesis by MAT2A (LC-MS/MS)
Type: biochemical
Design: GST (N); made in house
Protocol: SAM and SAH analysis by LC-MS/MS. The LC-MS/MS system consisted of two Varian ProStar 210 LC Pumps coupled with a Varian 1200L triple quadrupole mass spectrometer. The separation was performed on a Hypercarb column (50 mm×2.1 mm, […], Thermo Scientific #35003-052130). Gradient elution started with 98% solution A (0.1% formic acid in water), followed by an increase to 38% solution B (0.1% formic acid in acetonitrile) in 8 min. The column was than flushed with 90% B for 5 min and regenerated with 98% A for another 8 min. The flow rate was 0.25 mL/min. Between the 3rd and 11th min, the eluent was switched to the ion source of the mass spectrometer. The precursor product transitions for SAM (m/z 399→250), SAH (m/z 385→250) and [d-4]-SAH (m/z 389→136) were monitored. The optimized ion source parameters were: Capillary Voltage: 32 V for both SAM and SAH, Collision energy: 9 V and 7V for SAM and SAH, respectively, Needle voltage: 5000 V and the Shield voltage: 600V. Nitrogen was used as the drying gas at a temperature of 300° C. and the interface heater was set to 50° C. The drying gas and nebulizing gas were set to 20 and 50 psi, respectively.
SAM synthesis. […] purified MAT2A was incubated with 1 mM L-methionine and 1 mM ATP in […] reaction solution (50 mM Tris.Cl, 50 mM KCl, 10 mM MgCl2) for 5 min at 25° C. […] SAM was analyzed by LC-MS/MS. […]

Chain of MAT2A (P31153 whole entry): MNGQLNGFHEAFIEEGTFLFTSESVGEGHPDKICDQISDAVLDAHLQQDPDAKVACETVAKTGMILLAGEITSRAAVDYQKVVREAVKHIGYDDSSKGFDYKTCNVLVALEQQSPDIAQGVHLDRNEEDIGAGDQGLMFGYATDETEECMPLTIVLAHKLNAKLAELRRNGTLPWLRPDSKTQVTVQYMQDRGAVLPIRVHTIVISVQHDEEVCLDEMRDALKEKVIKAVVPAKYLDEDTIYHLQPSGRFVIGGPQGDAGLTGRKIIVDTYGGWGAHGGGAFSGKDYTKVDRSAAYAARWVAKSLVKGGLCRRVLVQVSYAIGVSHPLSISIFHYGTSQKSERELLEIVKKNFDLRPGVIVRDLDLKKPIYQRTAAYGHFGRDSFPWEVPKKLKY

CN(C)c1ccc(/C=C/c2c(F)cccc2F)cc1 [4r, (E)-4-(2,6-Difluorostyryl)-N,N-dimethylaniline]
MAT2A activity in SAM synthesis: inhibit MAT2A activity
